Assay results: patent US10774081B2, “Indolo substituted piperidine compound as estrogen receptor down-regulator” (LUOXIN PHARMACEUTICAL (SHANGHAI) CO., LTD., priority 2016, dated 2020)

What was measured:
[1] = test system: MCF-7 cells; assay: MCF-7 Cell Proliferation Inhibition Assay; format: cell-based; settings: Homo sapiens, MCF7, 144 h, 6 days incubation, CellTiter-Glo, read-out: MCF-7 cell proliferation suppression
Protocol: (1) MCF-7 Cell Proliferation Inhibition Assay
Substrate RPMI 1640, fetal calf serum, reagent Promega CellTiter-Glo. MCF-7 cell lines were purchased from the European Cell Culture Collection (ECACC). Envision multi-lable analyzer (PerkinElmer).
MCF-7 cells were seeded in black 384-well plates, each of the well has 600 cells in […] of cell suspension. The cell plates were placed in a carbon dioxide incubator overnight.
The compound to be tested was diluted by 5 times for 10 concentrations with Epmotion, ie., dilution from 0.25 mmol to 1.28 nmol, and replicated. 198 μl Medium was added to the middle plate, and 2 μl of each well of the gradient diluted compound was transferred to the correspondent position on the middle plate, and then 20 μl of each well was transferred to the cell plate after mixing. Then the cell plate was incubated in a carbon dioxide incubator for 6 days.
25 μl Promega CellTiter-Glo reagent was added into each well of the cell plate, the cell plate was then incubated for 10 mins at room temperature to stabilize the luminescence signal. PerkinElmer Envision multi-label analyser was used for readings.
The original data is converted to the inhibition rate using the equation (Max−Ratio)/(Max−Min)*100%, the value of IC50 also can be obtained by the curve fitting with four parameters. (by 205 model in XLFIT5,iDBS)

[2] = molecular target: T1, estrogen receptor (Homo sapiens, UniProt P03372); assay: ER Degradation in MCF-7 Cell; format: cell-based; settings: MCF-7 cells, 20 hours incubation, ER antibody infrared fluorescence; read-out: MCF-7 ER degradation IC50 intracellular
T1 construct: endogenous in cells; host or cells: MCF-7 (ECACC)
T1 sequence (P03372 1-595): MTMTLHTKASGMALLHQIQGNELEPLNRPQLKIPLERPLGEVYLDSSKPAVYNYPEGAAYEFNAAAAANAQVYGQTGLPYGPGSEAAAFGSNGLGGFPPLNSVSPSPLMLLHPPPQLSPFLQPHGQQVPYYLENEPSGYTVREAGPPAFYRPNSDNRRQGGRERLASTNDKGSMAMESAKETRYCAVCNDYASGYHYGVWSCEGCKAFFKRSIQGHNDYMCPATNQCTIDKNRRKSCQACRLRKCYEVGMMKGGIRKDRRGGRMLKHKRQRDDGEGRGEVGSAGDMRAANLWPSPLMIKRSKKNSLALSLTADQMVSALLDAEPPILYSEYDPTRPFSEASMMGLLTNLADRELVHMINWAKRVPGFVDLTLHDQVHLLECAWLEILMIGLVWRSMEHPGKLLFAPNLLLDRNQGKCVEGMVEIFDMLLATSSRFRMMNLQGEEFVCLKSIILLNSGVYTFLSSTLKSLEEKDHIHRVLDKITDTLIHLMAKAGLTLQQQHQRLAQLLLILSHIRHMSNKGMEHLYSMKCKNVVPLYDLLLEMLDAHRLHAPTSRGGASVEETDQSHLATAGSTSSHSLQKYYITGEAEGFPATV
Protocol: Substrate RPMI 1640, fetal calf serum, PBS, 16% paraformaldehyde, Triton, confining liquid, estrogen receptor antibody, near0infrared goat anti-rabbit secondary antibody, DRAQ5 dye. The MCF-7 cell lines were purchased from the European Cell Culture Collection (ECACC). Odyssey infrared fluorescence scanning imaging system.
The MCF-7 cell was seeded in the black 384-well plate, each of the well has 3200 cells in 30 ml cell suspension. The cell plate were incubated in a carbon dioxide incubator for 4 days.
198 μl Medium was added into the middle plate and 2 μl each well of the gradient diluted compound was transferred to the correspond position on the middle plate, then the compound was transferred 20 μl per well after mixing to the cell plate. The cell plate was then incubated in a carbon dioxide incubator for 20 hours.
50 μl 8% Paraformaldehyde was added into each well of the cell plate, after incubation at room temperature for 30 min, the plate was washed by PBS twice, pat dried and 50 ul PBS containing 0.1% Triton was added, the plate was incubated at room temperature for 15 mins, then washed with PBS for 5 times, pat dried and 50 ul confining liquid was added and incubated at room temperature for 1 hour, pat dried and 50 ul confining liquid containing 0.1% estrogen receptor antibody was added and then left at 4° C. overnight. […]

[3] = Tissue distribution evaluation of the drug (plasma and brain); format: in vivo; settings: mouse, mice, dosage 10 mpk, 21th day after administration, tissue collected near Tmax, read-out: Ratio of drug concentration Brain tissue/plasma
Protocol: Experiment 2: Tissue Distribution Evaluation of the Drug
On the 21th day after administration, select randomly three mice from the drug-administrated group, and collect their plasma samples at different timing, the mice were euthanized near Tmax, and the tumor, brain and breast samples were collected.
The procedure of collecting the plasma and tissue samples are as follows:
Plasma: Blood (60 μl) was collected using a 1.5 ml EDTA-K2 anticoagulation tube, the plasma was obtained after immediately centrifugation at 7000 rpm, at 4° C. for 10 mins, then the plasma simple was stored at −80° C. for drug concentration determination.
Tissue: Brain was collected using a 5 ml cryotube and immediately quick froze in liquid nitrogen. After sampling, tissues were stored at −80° C. for drug concentration determination used for comparing the distribution.

[4] = in vivo; cited from earlier work
[5] = test system: breast cancer; settings: intramuscularly administrated; cited from earlier work

| IC50 [1] [nM] | DC50 [2] [nM] | Kp [3] | SMILES | oral bioavailability [4] | breast cancer patients showing clinical response [5] [%] |
| --- | --- | --- | --- | --- | --- |
| 1.17 | 1.13 | 13.1 | CC1Cc2c([nH]c3ccccc23)C(c2c(F)cc(OCCN3CC(CC#N)C3)cc2F)N1CC(F)(F)F (stereo not shown) [(I)] |  |  |
|  |  | 5.8 | C[C@@H]1Cc2c([nH]c3ccccc23)[C@@H](c2c(F)cc(OCCN3CC(CF)C3)cc2F)N1CC(C)(C)F [(II)] |  |  |
| 1.77 |  |  | C[C@]12CC[C@@H]3c4ccc(O)cc4C[C@@H](CCCCCCCCC[S+]([O-])CCCC(F)(F)C(F)(F)F)[C@H]3[C@@H]1CC[C@@H]2O (stereo partly shown) [Fulvestrant] | zero | 50 |
